Starred links: 1 amine or outer side, 2 acyl side, 3 side chain; linkers in the order of their positions; H or OH if unused. Non-standard residues stand in square brackets, D forms with d. Residues, ends and D or L forms follow the SMILES beside them. ξ: configuration not given here. ξBip(2'-Et-4'-OMe) = CCc1cc(OC)ccc1-c1ccc(CC(N)C(=O)O)cc1; X12 = COc1ccc(CCCC(N[*:1])C(=O)[*:2])c(Cl)c1; ξαMePhe(2-F) = CC(N)(Cc1ccccc1F)C(=O)O; Aib = CC(C)(N)C(=O)O
Experiments:
[1] = test system: C57BL/6J mice (mild hyperglycemic); experiment: In vivo glucose reduction, acute single dose 120-min time-course, i.p. route; design: species or system mouse; unit not given here; conditions: male C57BL/6J mice
Description: All the animal experiments were carried out according to the internationally valid guidelines following approval by the ‘Zydus Research Center animal ethical committee’.
Two days prior to the study, the animals were randomised and divided into 5 groups (n=6), based upon their fed glucose levels. On the day of experiment, food was withdrawn from all the cages, water was given ad-libitum and were kept for overnight fasting. Vehicle (normal saline)/test/standard compounds were administered intraperitoneally (i.p.) or orally, on a body weight basis.
Blood samples were centrifuged and the separated serum was immediately subjected for the glucose estimation. Serum for insulin estimation was stored at −70° C. until used for the insulin estimation. The glucose estimation was carried out with DPEC-GOD/POD method (Ranbaxy Fine Chemicals Limited, Diagnostic division, India), using Spectramax-190, in 96-microwell plate reader (Molecular devices Corporation, Sunnyvale, Calif.). […] The AUC and BCAUC obtained from graphs were analyzed for one way ANOVA, followed by Dunnett's post test, using Graph Pad prism software. Furthermore, the insulin estimation was carried out using rat/mouse insulin ELISA kit (Linco research, Missouri USA).

[2] = test system: RIN5F (Rat Insulinoma) cells; experiment: In vitro glucose-dependent insulin secretion (RIN5F cell assay screening protocol); format: cell-based; conditions: 16.7 mM glucose load
Human GLP-1 receptor = target: T1, Human GLP-1 receptor (Homo sapiens, UniProt P43220); experiment: In vitro Human GLP-1 R agonist activity (cyclic AMP determination) in CHO/human GLP1R cells; format: cell-based
T1 construct: The full-length cDNA was cloned in pcDNA3.1(+); expressed in transfected cells

human glucagon receptor = target: T2, human glucagon receptor (Homo sapiens, UniProt P47871); experiment: In vitro human glucagon antagonist activity (inhibition of cAMP production) in CHO/human glucagon R cells; format: cell-based; conditions: with saturated concentration of glucagon peptide
T2 construct: The full-length cDNA was cloned in pcDNA3.1 (Invitrogen); expressed in transfected cells

DPP IV = DPP IV (Homo sapiens, UniProt P27487); experiment: Stability against DPP IV enzyme; format: in vitro ADME; conditions: 37° C.; for % degradation of peptidomimetics in 24 h when incubated with DPP-IV enzyme: 2 μM peptidomimetic; for half-life at 2 μM: DPP IV enzyme, pH 7.8, 2 μM peptidomimetic, read-out: half-life (t1/2) when incubated with DPP-IV enzyme
Description: (§1) Reactions were terminated by the addition of TFA/H2O (15 mL, 10% (v/v)). […] The column was equilibrated with TFA/H20, at a flow rate of 1 mL/min.

[3] = Stability in human plasma; format: in vitro ADME; conditions: 2 μM peptidomimetic, pooled human plasma, 37° C.; for half-life at 2 μM: pH 7.8, read-out: half-life (t1/2) when incubated with human plasma
Description: as §1

[4] = Stability in simulated gastric fluid; format: in vitro ADME; conditions: 2 μM peptidomimetic, simulated gastric fluid pH 1.5, 37° C.; for half-life at 2 μM: read-out: half-life (t1/2) when incubated with simulated gastric fluid
Description: as §1

[5] = Stability in simulated intestinal fluid; format: in vitro ADME; conditions: 2 μM peptidomimetic, simulated intestinal fluid pH 7.5, 37° C.; for half-life at 2 μM: read-out: half-life (t1/2) when incubated with simulated intestinal fluid
Description: as §1

[6] = Stability in liver microsomes; format: in vitro ADME; conditions: 2 μM peptidomimetic, human liver microsomes, 37° C.; for half-life at 2 μM: pH 7.8, read-out: half-life (t1/2) when incubated with liver microsomes
Description: as §1

DPP IV, sequence (P27487 whole entry, species assumed): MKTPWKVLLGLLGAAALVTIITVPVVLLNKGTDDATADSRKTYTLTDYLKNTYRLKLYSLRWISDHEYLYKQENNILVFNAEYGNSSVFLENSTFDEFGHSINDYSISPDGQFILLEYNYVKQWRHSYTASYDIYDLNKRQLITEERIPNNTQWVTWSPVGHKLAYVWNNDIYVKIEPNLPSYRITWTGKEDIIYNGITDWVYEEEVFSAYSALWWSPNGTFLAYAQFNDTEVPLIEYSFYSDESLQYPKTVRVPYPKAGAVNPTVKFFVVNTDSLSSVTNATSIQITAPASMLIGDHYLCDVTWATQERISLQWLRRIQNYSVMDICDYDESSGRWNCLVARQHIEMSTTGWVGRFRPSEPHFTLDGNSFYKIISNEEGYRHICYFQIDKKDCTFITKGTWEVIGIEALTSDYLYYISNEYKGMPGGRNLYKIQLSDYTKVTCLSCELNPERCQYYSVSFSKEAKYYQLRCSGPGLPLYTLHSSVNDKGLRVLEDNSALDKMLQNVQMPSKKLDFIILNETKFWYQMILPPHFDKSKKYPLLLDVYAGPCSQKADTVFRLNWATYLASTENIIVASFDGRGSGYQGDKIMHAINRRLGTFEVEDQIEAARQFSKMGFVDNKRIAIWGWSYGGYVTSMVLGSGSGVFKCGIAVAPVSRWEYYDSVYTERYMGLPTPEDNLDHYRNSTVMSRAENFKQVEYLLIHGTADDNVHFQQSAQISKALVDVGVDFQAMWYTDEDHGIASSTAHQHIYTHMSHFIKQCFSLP
T1 sequence (P43220 24-463): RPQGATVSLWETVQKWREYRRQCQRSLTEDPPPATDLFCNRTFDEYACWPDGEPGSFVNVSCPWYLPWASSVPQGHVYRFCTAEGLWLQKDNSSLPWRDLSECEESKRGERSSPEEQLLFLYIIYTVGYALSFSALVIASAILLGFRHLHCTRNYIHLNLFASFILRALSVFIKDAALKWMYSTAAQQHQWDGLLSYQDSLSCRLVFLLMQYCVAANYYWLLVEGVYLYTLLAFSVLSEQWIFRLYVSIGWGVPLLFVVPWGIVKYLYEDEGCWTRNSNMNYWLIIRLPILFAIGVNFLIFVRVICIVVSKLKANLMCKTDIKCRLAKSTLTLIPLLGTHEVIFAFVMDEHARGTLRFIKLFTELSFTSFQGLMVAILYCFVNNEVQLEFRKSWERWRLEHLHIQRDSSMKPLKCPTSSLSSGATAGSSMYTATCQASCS
T2 sequence (P47871 26-477): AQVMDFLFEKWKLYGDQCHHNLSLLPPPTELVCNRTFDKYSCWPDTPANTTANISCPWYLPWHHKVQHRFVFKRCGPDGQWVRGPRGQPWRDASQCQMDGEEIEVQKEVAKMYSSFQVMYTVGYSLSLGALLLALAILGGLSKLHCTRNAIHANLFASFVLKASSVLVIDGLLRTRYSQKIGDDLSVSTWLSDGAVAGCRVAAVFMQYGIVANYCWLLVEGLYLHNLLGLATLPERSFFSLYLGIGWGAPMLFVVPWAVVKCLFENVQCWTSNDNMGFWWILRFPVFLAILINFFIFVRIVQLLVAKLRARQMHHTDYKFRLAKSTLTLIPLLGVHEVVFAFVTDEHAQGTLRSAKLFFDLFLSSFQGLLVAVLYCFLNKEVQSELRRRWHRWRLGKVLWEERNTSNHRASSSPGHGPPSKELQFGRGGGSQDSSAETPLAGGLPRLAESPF

Structure (SMILES) | Insulin secretion ([2]; 0.1 nM test compd.) [pg/µg/h] | Insulin secretion ([2]; 1 nM test compd.) [pg/µg/h] | Insulin secretion ([2]; 10 nM test compd.) [pg/µg/h] | Human GLP-1 R activity (cAMP release), % activity with respect to control (Human GLP-1 receptor; 1 nM test compound) [%] | Human GLP-1 R activity (cAMP release), % activity with respect to control (Human GLP-1 receptor; 10 nM test compound) [%] | Human GLP-1 R activity (cAMP release), % activity with respect to control (Human GLP-1 receptor; 100 nM test compound) [%] | Human GLP-1 R activity (cAMP release), % activity with respect to control (Human GLP-1 receptor; 1 μM test compound) [%] | Human GLP-1 R activity (cAMP release), % activity with respect to control (Human GLP-1 receptor; 10 μM test compound) [%] | Human Glucagon receptor antagonistic activity shown as inhibition of cAMP production of Glucagon peptide (human glucagon receptor; 1 nM test compound) [pmol/ml/μg prt] | Human Glucagon receptor antagonistic activity shown as inhibition of cAMP production of Glucagon peptide (human glucagon receptor; 10 nM test compound) [pmol/ml/μg prt] | Human Glucagon receptor antagonistic activity shown as inhibition of cAMP production of Glucagon peptide (human glucagon receptor; 100 nM test compound) [pmol/ml/μg prt] | Human Glucagon receptor antagonistic activity shown as inhibition of cAMP production of Glucagon peptide (human glucagon receptor; 1 μM test compound) [pmol/ml/μg prt] | Human Glucagon receptor antagonistic activity shown as inhibition of cAMP production of Glucagon peptide (human glucagon receptor; 10 μM test compound) [pmol/ml/μg prt] | % degradation of peptidomimetics in 24 h when incubated with DPP-IV enzyme (DPP IV) [%] | half-life at 2 μM (DPP IV) [h] | % degradation of peptidomimetics in 24 h when incubated with human plasma [3] [%] | half-life at 2 μM [3] [h] | % degradation of peptidomimetics in 24 h when incubated with simulated gastric fluid [4] [%] | half-life at 2 μM [4] [h] | % degradation of peptidomimetics in 24 h when incubated with simulated intestinal fluid [5] [%] | further results
CCc1cc(OC)ccc1-c1ccc(CC(NC(=O)[C@H](CC(=O)O)NC(=O)[C@H](CO)NC(=O)[C@@H](NC(=O)C(C)(Cc2ccccc2F)NC(=O)[C@@H](NC(=O)CNC(=O)[C@H](CCC(N)=O)NC(=O)C(C)(C)NC(=O)[C@@H](N)Cc2c[nH]cn2)[C@@H](C)O)[C@@H](C)O)C(=O)NC(CCCc2ccc(OC)cc2Cl)C(N)=O)cc1 (stereo partly drawn) [Seq. ID. 92] (H-H[Aib]QGT[ξαMePhe(2-F)]TSD[ξBip(2'-Et-4'-OMe)][X12]-NH2) |  |  |  |  |  |  |  |  |  |  |  |  |  |  |  |  |  |  |  |  | blood glucose levels ([1]; 10 nM/kg i.p., 0 min): 180 ± 4.2; blood glucose levels ([1]; 10 nM/kg i.p., 30 min): 113 ± 3.2; blood glucose levels ([1]; 10 nM/kg i.p., 60 min): 112 ± 2.4; blood glucose levels ([1]; 10 nM/kg i.p., 120 min): 110 ± 1.9
CCc1cc(OC)ccc1-c1ccc(CC(CNC(CCCc2ccccc2)C(N)=O)NC[C@H](CC(=O)O)NC(=O)[C@H](CO)NC(=O)[C@@H](NC(=O)C(C)(Cc2ccccc2F)NC(=O)[C@@H](NC(=O)CNC(=O)[C@H](CCC(N)=O)NC(=O)C(C)(C)NC(=O)[C@H](Cc2c[nH]cn2)NC(C)=O)[C@H](C)O)[C@H](C)O)cc1 (single isomer, unassigned) [Seq. ID. 197] |  |  |  |  |  |  |  |  |  |  |  |  |  |  |  |  |  |  |  |  | blood glucose levels ([1]; 50 nM/kg i.p., 0 min): 180 ± 4.2; blood glucose levels ([1]; 50 nM/kg i.p., 30 min): 113 ± 3.2; blood glucose levels ([1]; 50 nM/kg i.p., 60 min): 112 ± 2.4; blood glucose levels ([1]; 50 nM/kg i.p., 120 min): 110 ± 1.9
CCc1cc(OC)ccc1-c1ccc(CC(NC(=O)[C@H](CC(=O)O)NC(=O)[C@H](CO)NC(=O)[C@@H](NC(=O)C(C)(Cc2ccccc2F)NC(=O)[C@@H](NC(=O)CNC(=O)C(CCC#N)NC(=O)C(C)(C)NC(=O)[C@@H](N)Cc2c[nH]cn2)[C@H](C)O)[C@H](C)O)C(=O)NC(CCCc2ccccc2F)C(N)=O)cc1 (single isomer, unassigned) [compound 116] | 16.4 ± 0.12 | 22.7 ± 0.17 | 36.6 ± 0.05 | 55 ± 0.16 | 88 ± 0.13 | 92 ± 0.11 | 99 ± 0.07 | 99 ± 0.09 | 2 ± 0.03 | 0 | 0 | 0 | 0 | 00 | > 24 | 00 | > 24 | 43 | 4 | 00 | half-life at 2 μM [5]: > 24 h; % degradation of peptidomimetics in 24 h when incubated with liver microsomes [6]: 84%; half-life at 2 μM [6]: 2 h
CCc1cc(OC)ccc1-c1ccc(CC(NC(=O)[C@H](CC(=O)O)NC(=O)[C@H](CO)NC(=O)[C@@H](NC(=O)C(C)(Cc2ccccc2F)NC(=O)[C@@H](NC(=O)CNC(=O)C(CCC#N)NC(=O)C(C)(C)NC(=O)[C@@H](N)Cc2c[nH]cn2)[C@H](C)O)[C@@H](C)O)C(=O)NC(CCCc2ccccc2)C(N)=O)cc1 (single isomer, unassigned) [compound 110] | 12.0 ± 0.14 | 14.3 ± 0.12 | 27.8 ± 0.32 | 38 ± 0.11 | 77 ± 0.16 | 85 ± 0.11 | 94 ± 0.08 | 97 ± 0.05 | 18 ± 0.07 | 16 ± 0.01 | 12 ± 0.03 | 8 ± 0.02 | 6 ± 0.08 | 00 | > 24 | 00 | > 24 | 43 | 4 | 00 | half-life at 2 μM [5]: > 24 h; % degradation of peptidomimetics in 24 h when incubated with liver microsomes [6]: 84%; half-life at 2 μM [6]: 2 h

— patent US8883963B2 (Cadila Healthcare Limited, priority 2007, dated 2014)
